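A five-concentration, 48-hour dose response in 96-well plates underlies each endpoint, interpolated linearly between surrounding concentrations. TGI denotes the concentration required for complete inhibition of growth.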
Legend:
Test in all cases: NCI tumour cell line growth inhibition, 48 h
MDA-MB-231 breast = test system: MDA-MB-231 breast
HS 578T breast = test system: HS 578T breast
CAKI-1 renal = test system: CAKI-1 renal
LOX IMVI melanoma = test system: LOX IMVI melanoma
HL-60(TB) leukemia = test system: HL-60(TB) leukemia
SK-MEL-28 melanoma = test system: SK-MEL-28 melanoma
HCT-116 colon = test system: HCT-116 colon
MDA-MB-435 = test system: MDA-MB-435
SK-MEL-2 melanoma = test system: SK-MEL-2 melanoma
COLO 205 colon = test system: COLO 205 colon
IGROV1 ovarian = test system: IGROV1 ovarian
TK-10 renal = test system: TK-10 renal
HCT-15 colon = test system: HCT-15 colon
UACC-257 melanoma = test system: UACC-257 melanoma
UACC-62 melanoma = test system: UACC-62 melanoma
OVCAR-4 ovarian = test system: OVCAR-4 ovarian
BT-549 breast = test system: BT-549 breast
NCI/ADR-RES ovarian = test system: NCI/ADR-RES ovarian
RXF 393 renal = test system: RXF 393 renal
NCI-H226 lung = test system: NCI-H226 lung

Row | SMILES | TGI (MDA-MB-231 breast) [µM] | TGI (HS 578T breast) [µM] | TGI (CAKI-1 renal) [µM] | TGI (LOX IMVI melanoma) [µM] | TGI (HL-60(TB) leukemia) [µM] | TGI (SK-MEL-28 melanoma) [µM] | TGI (HCT-116 colon) [µM] | TGI (MDA-MB-435) [µM] | TGI (SK-MEL-2 melanoma) [µM] | TGI (COLO 205 colon) [µM] | TGI (IGROV1 ovarian) [µM] | TGI (TK-10 renal) [µM] | TGI (HCT-15 colon) [µM] | TGI (UACC-257 melanoma) [µM] | TGI (UACC-62 melanoma) [µM] | TGI (OVCAR-4 ovarian) [µM] | TGI (BT-549 breast) [µM] | TGI (NCI/ADR-RES ovarian) [µM] | TGI (RXF 393 renal) [µM] | TGI (NCI-H226 lung) [µM]
1 | COc1cc(OC)nc(-n2c(N)c(C#N)c3ccc([N+](=O)[O-])cc3c2=O)n1 | > 100 | > 100 | > 100 | > 100 | > 100 | > 100 | > 100 | > 100 | > 100 | > 100 | > 100 | > 100 | > 100 | > 100 | > 100 | > 100 | > 100 | > 100 | – | –
2 | O=C(CCc1ccc(O)c(O)c1)NCCc1cc(O)cc(O)c1 | > 100 | > 100 | > 100 | > 100 | > 100 | > 100 | > 100 | 66.6 | > 100 | > 100 | > 100 | > 100 | > 100 | > 100 | > 100 | – | > 100 | > 100 | > 100 | > 100
3 | Cc1nn(C(=O)c2ccc(Cl)cc2)c2c1C(c1ccccc1[N+](=O)[O-])SC(N)=N2 (stereo not drawn) | > 10 | > 10 | > 10 | > 10 | > 10 | – | > 10 | > 10 | > 10 | > 10 | > 10 | > 10 | > 10 | > 10 | > 10 | > 10 | > 10 | > 10 | 2.25 | > 10
4 | COC(=O)C1CN=CN1CCc1ccccc1 (stereo not drawn) | > 100 | > 100 | > 100 | > 100 | > 100 | > 100 | > 100 | > 100 | > 100 | > 100 | > 100 | > 100 | > 100 | > 100 | > 100 | > 100 | > 100 | > 100 | > 100 | > 100
5 | C=CCC1(OC(C)=O)C2OC(=O)C1(O)OCC2O (stereo not drawn) | > 100 | > 100 | > 100 | > 100 | > 100 | > 100 | > 100 | > 100 | > 100 | > 100 | > 100 | > 100 | > 100 | > 100 | > 100 | > 100 | > 100 | > 100 | > 100 | > 100
6 | C[C@@H](c1ccccc1)N1CN(C(=O)OCc2ccccc2)C(C)(C)CC1=O | > 100 | > 100 | > 100 | > 100 | > 100 | > 100 | > 100 | > 100 | > 100 | > 100 | > 100 | > 100 | > 100 | > 100 | > 100 | > 100 | > 100 | > 100 | 70.9 | > 100
7 | CC(=O)Oc1ccc(-c2cc3ccccc3oc2=O)cc1 | > 100 | > 100 | – | > 100 | > 100 | > 100 | > 100 | > 100 | > 100 | > 100 | – | > 100 | > 100 | > 100 | – | > 100 | > 100 | > 100 | – | > 100
8 | CCn1c(SCC(=O)NNC(=S)Nc2ccc([N+](=O)[O-])cc2)nc2ccccc2c1=O | > 100 | > 100 | > 100 | > 100 | > 100 | > 100 | > 100 | > 100 | > 100 | > 100 | > 100 | > 100 | > 100 | > 100 | > 100 | > 100 | > 100 | > 100 | > 100 | > 100
9 | COc1cc2c(cc1OC)C(=O)/C(=C/c1ccc(Cl)cc1)CC2 | > 10 | > 10 | > 10 | > 10 | > 10 | > 10 | > 10 | > 10 | > 10 | > 10 | > 10 | > 10 | > 10 | > 10 | > 10 | > 10 | > 10 | > 10 | > 10 | > 10
10 | CCN(CC)/C(Sc1ccccc1)=C(\C(Cl)=C(Cl)Cl)[N+](=O)[O-] | 50.5 | 81 | 29.2 | 25.8 | 5.94 | 32 | 32.8 | 27.7 | – | 31.5 | 43.7 | 31.3 | 34.8 | 44.5 | 43.7 | > 100 | 38.1 | > 100 | 36.8 | 42.8
11 | O=S(=O)(O)C(=Nc1cccc(Cc2ccccc2)c1)Nc1cccc(Cc2ccccc2)c1 | 38.2 | 45.5 | > 100 | 26.6 | 95.7 | 38.8 | 28.2 | 40.6 | 44.6 | 34.3 | 31.3 | 35.6 | 35.2 | 48.7 | 30.9 | 41 | 33.4 | 35.2 | 33.3 | 33.7
12 | Cc1cccc(CP(Cc2cccc(C)c2)CC2(Cp3c4ccccc4c4ccccc43)COC2)c1 | > 37 | > 100 | > 76.5 | > 100 | 2.78 | > 100 | > 100 | > 100 | > 94.7 | 2.96 | > 100 | > 71.8 | > 100 | > 100 | > 100 | > 100 | > 100 | > 100 | > 100 | > 100
13 | O=C1NCc2ccccc2S(=O)(=O)n2cccc21 | > 100 | > 100 | > 100 | > 100 | > 100 | > 100 | > 100 | > 100 | > 100 | > 100 | > 100 | > 100 | > 100 | > 100 | > 100 | > 100 | > 100 | > 100 | – | > 100
14 | CC(=O)OCC1OC(c2nc3ccccc3s2)=CC(OC(C)=O)C1OC(C)=O (stereo not drawn) | > 100 | > 100 | > 100 | > 100 | > 100 | > 100 | > 100 | > 100 | – | > 100 | > 100 | > 100 | – | > 100 | – | > 100 | > 100 | > 100 | > 100 | > 100
15 | CC(C)(C)OC(=O)N1CCC(C(=O)O)CC1 | > 100 | > 100 | > 100 | > 100 | > 100 | > 100 | > 100 | > 100 | > 100 | > 100 | > 100 | > 100 | > 100 | > 100 | > 100 | > 100 | > 100 | > 100 | – | –
16 | Nc1ccc2c(SCc3ccc([N+](=O)[O-])cc3)c3ccccc3nc2c1 | > 55.8 | 48 | 28.7 | 19.1 | 10.1 | 33.5 | 22.7 | 33.7 | 32.4 | 6.36 | 39.5 | 26.5 | 31.1 | 33.6 | 31.3 | 30.6 | 32.1 | 40.6 | 42.3 | 38.3
17 | CC(=O)OCC1OC(OC2CC3C(C)(C)C(OC(C)=O)CC[C@]3(C)C3CCC45CC4(CCC5[C@@H](C)C[C@H](O)C(O)C(C)(C)O)[C@]23C)C(O)C(O)C1O (stereo partly drawn) | > 10 | > 10 | > 10 | > 10 | > 10 | > 10 | > 10 | > 10 | > 10 | > 10 | > 10 | > 10 | > 10 | > 10 | > 10 | > 10 | > 10 | > 10 | > 10 | > 10
18 | CCOC(=O)c1nc2ccccc2nc1NCc1cc(OC)c(OC)c(OC)c1 | > 100 | > 100 | > 100 | > 100 | > 100 | > 100 | > 100 | 71.8 | – | > 100 | > 100 | > 100 | > 100 | > 100 | > 100 | > 100 | > 100 | 47.8 | > 100 | > 100
19 | COC(=O)CNS(=O)(=O)c1ccc(-c2c3nc(c(-c4ccc(S(=O)(=O)NCC(=O)OC)cc4)c4ccc([nH]4)c(-c4ccc(S(=O)(=O)NCC(=O)OC)cc4)c4nc(c(-c5ccc(S(=O)(=O)NCC(=O)OC)cc5)c5ccc2[nH]5)C=C4)C=C3)cc1 | > 100 | > 100 | > 100 | > 100 | > 100 | > 100 | > 100 | > 100 | > 100 | > 100 | > 100 | > 100 | > 100 | > 100 | > 100 | > 100 | > 100 | > 100 | > 100 | –
20 | COc1cc(CO)c(CC(=O)NCCCc2ccccc2)cc1OC | > 100 | > 100 | > 100 | > 100 | > 100 | > 100 | > 100 | > 100 | > 100 | > 100 | > 100 | > 100 | > 100 | > 100 | > 100 | > 100 | > 100 | > 100 | – | > 100
21 | CCCCCCC(=O)O[C@H]1CC[C@H]2[C@@H]3CCC4C/C(=N/NC(=O)c5cccc6c(=O)c7ccccc7[nH]c56)C=C(C)[C@]4(C)[C@H]3CC[C@]12C (stereo partly drawn) | > 25 | > 25 | > 25 | > 25 | > 25 | – | > 25 | > 25 | > 25 | > 25 | > 25 | > 25 | > 25 | > 25 | > 25 | > 25 | > 25 | > 25 | – | > 25
22 | CN(C)CCN(C)c1ccc2c(=O)n(CCN(C)C)c(=O)n3c4ccccc4c(=O)c1c23 | 4.23 | 8.65 | 1.08 | 5.53 | – | 6.81 | 3.14 | 3.18 | 6.84 | 3.03 | 8.02 | 5.43 | 10.8 | 4.73 | 2.6 | 2.27 | 15 | 16.9 | 11.2 | 1.59
23 | O=C(c1ccc(Cl)cc1)N(C(=O)N1CCC(c2ccccc2)CC1)c1ccccc1 | > 100 | > 100 | > 100 | > 100 | 61.5 | > 100 | > 100 | > 100 | > 100 | > 100 | > 100 | > 100 | > 100 | 83 | > 100 | – | 73.6 | > 100 | 62.5 | 99.7
